In the supplement of paper PMC10307832 one finds relative viability data, which are given here for four cell lines.

What all share (assay): relative viability (nuclei count vs DMSO), 5 days (fraction); higher = more cells survive
Compound in the test “TGX 221 + Trametinib”: CC1=CN2C(=O)C=C(N=C2C(=C1)C(C)NC3=CC=CC=C3)N4CCOCC4 [TGX 221] + CC(=O)Nc1cccc(-n2c(=O)n(C3CC3)c(=O)c3c(Nc4ccc(I)cc4F)n(C)c(=O)c(C)c32)c1 [Trametinib] (partner 0.02 µM)
The essentials:
(§1)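 For relative viability, nuclei counts in treated wells were divided by those in vehicle wells. Lung cancer cell lines had been pin-tool dosed in 1536-well plates the day after seeding and cultured for 5 days, then fixed and stained in one step (final 0.05% Triton X-100, 1% formaldehyde, 1 ug/ml Hoechst) and imaged at 4×. Doses were one drug alone or a fixed anchor-drug dose plus five library-drug doses (not always all listed) in √10 steps, and values are duplicate-plate medians.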

Compound in the test “Ricolinostat + AZD7762”: O=C(CCCCCCNC(=O)c1cnc(N(c2ccccc2)c2ccccc2)nc1)NO [Ricolinostat] + NC(=O)Nc1cc(-c2cccc(F)c2)sc1C(=O)N[C@H]1CCCNC1 [AZD7762] (partner 0.2 µM)
In a few lines: as §1

Compound in the test “Ricolinostat + Olaparib”: O=C(CCCCCCNC(=O)c1cnc(N(c2ccccc2)c2ccccc2)nc1)NO [Ricolinostat] + O=C(c1cc(Cc2n[nH]c(=O)c3ccccc23)ccc1F)N1CCN(C(=O)C2CC2)CC1 [Olaparib] (partner 8 µM)
The essentials: as §1

Compound in test [1]: C1=CC=C(C(=C1)C2=CC=C(C=C2)C3=CSC4=C3C(=C(C(=O)N4)C#N)O)O + CC(=O)Nc1cccc(-n2c(=O)n(C3CC3)c(=O)c3c(Nc4ccc(I)cc4F)n(C)c(=O)c(C)c32)c1 [Trametinib] (partner 0.02 µM)
The essentials:
as §1

On to HCC-44, for which the relative viability with TGX 221 + Trametinib (first compound 0.08 µM) was found to be 1.07; in the test with TGX 221 + Trametinib (first compound 0.253 µM), 1.06; with TGX 221 + Trametinib (first compound 0.8 µM), 1.14; with TGX 221 + Trametinib (first compound 2.53 µM), 1.13; with TGX 221 + Trametinib (first compound 8 µM), 0.945; with Ricolinostat + AZD7762 (first compound 0.08 µM), 1.05. Also, the relative viability in the test with Ricolinostat + AZD7762 (first compound 0.253 µM) was 0.972; with Ricolinostat + AZD7762 (first compound 0.8 µM), 0.993; with Ricolinostat + AZD7762 (first compound 2.53 µM), 1.05; in the test with Ricolinostat + Olaparib (first compound 0.08 µM) it was 1.04; in the test with Ricolinostat + Olaparib (first compound 0.253 µM), 0.922; in the test with Ricolinostat + Olaparib (first compound 0.8 µM), 1.06. Besides, the relative viability was determined as 1 in the test with Ricolinostat + Olaparib (first compound 2.53 µM); 1.13 in test [1] (first compound 0.08 µM); 1.15 in test [1] (first compound 0.253 µM); 1.13 in test [1] (first compound 0.8 µM); 0.937 in test [1] (first compound 2.53 µM); 0.927 in test [1] (first compound 8 µM).
As to NCI-H2405, the relative viability amounted to 0.529 in the test with TGX 221 + Trametinib (first compound 0.08 µM); 0.571 with TGX 221 + Trametinib (first compound 0.253 µM); 0.461 with TGX 221 + Trametinib (first compound 0.8 µM); 0.465 with TGX 221 + Trametinib (first compound 2.53 µM); 0.436 with TGX 221 + Trametinib (first compound 8 µM); 0.698 in the test with Ricolinostat + AZD7762 (first compound 0.08 µM). Further, the relative viability with Ricolinostat + AZD7762 (first compound 0.253 µM) was determined as 0.781; in the test with Ricolinostat + AZD7762 (first compound 0.8 µM), 0.738; in the test with Ricolinostat + AZD7762 (first compound 2.53 µM), 0.76; in the test with Ricolinostat + Olaparib (first compound 0.08 µM) it was 0.705; in the test with Ricolinostat + Olaparib (first compound 0.253 µM), 0.858; in the test with Ricolinostat + Olaparib (first compound 0.8 µM), 0.814. In addition, the relative viability with Ricolinostat + Olaparib (first compound 2.53 µM) was found to be 0.937; in test [1] (first compound 0.08 µM), 0.55; in test [1] (first compound 0.8 µM), 0.639; in test [1] (first compound 2.53 µM) it was 0.601; in test [1] (first compound 8 µM), 0.574.
For PC-14, the relative viability in the test with TGX 221 + Trametinib (first compound 0.08 µM) was determined as 0.666; with TGX 221 + Trametinib (first compound 0.253 µM) it was 0.701; with TGX 221 + Trametinib (first compound 0.8 µM), 0.701; with TGX 221 + Trametinib (first compound 2.53 µM) it was 0.717; with TGX 221 + Trametinib (first compound 8 µM) it was 0.515; with Ricolinostat + AZD7762 (first compound 0.08 µM), 0.26. Besides, the relative viability in the test with Ricolinostat + AZD7762 (first compound 0.253 µM) is 0.321; with Ricolinostat + AZD7762 (first compound 0.8 µM) it was 0.306; with Ricolinostat + AZD7762 (first compound 2.53 µM), 0.26; with Ricolinostat + Olaparib (first compound 0.08 µM), 0.265; with Ricolinostat + Olaparib (first compound 0.253 µM) it was 0.257; with Ricolinostat + Olaparib (first compound 0.8 µM), 0.267. Also, the relative viability with Ricolinostat + Olaparib (first compound 2.53 µM) was determined as 0.199; in test [1] (first compound 0.08 µM), 0.758; in test [1] (first compound 0.253 µM), 0.925; in test [1] (first compound 0.8 µM), 0.912; in test [1] (first compound 2.53 µM), 0.792; in test [1] (first compound 8 µM), 0.623.
Take NCI-H1666: the relative viability with TGX 221 + Trametinib (first compound 0.08 µM) is 0.726; in the test with TGX 221 + Trametinib (first compound 0.253 µM) it was 0.797; with TGX 221 + Trametinib (first compound 0.8 µM) it was 0.852; with TGX 221 + Trametinib (first compound 2.53 µM), 0.884; with TGX 221 + Trametinib (first compound 8 µM), 0.742; in the test with Ricolinostat + AZD7762 (first compound 0.08 µM), 0.705. Further, the relative viability with Ricolinostat + AZD7762 (first compound 0.253 µM) stood at 0.886; with Ricolinostat + AZD7762 (first compound 0.8 µM), 0.714; with Ricolinostat + AZD7762 (first compound 2.53 µM) it was 0.768; with Ricolinostat + Olaparib (first compound 0.08 µM), 0.708; in the test with Ricolinostat + Olaparib (first compound 0.253 µM), 0.709; with Ricolinostat + Olaparib (first compound 0.8 µM), 0.695. For the same cell line, the relative viability with Ricolinostat + Olaparib (first compound 2.53 µM) is 0.829; in test [1] (first compound 0.08 µM), 0.819; in test [1] (first compound 0.253 µM), 1.13; in test [1] (first compound 0.8 µM), 0.935; in test [1] (first compound 2.53 µM), 0.861; in test [1] (first compound 8 µM) it was 0.803.
